Source: patent publication US20120277265A1, “NOVEL POLYQUINOLINE DERIVATIVES AND THE THERAPEUTIC USE THEREOF” (CENTRE NATIONAL DE LA RECHERCHE SCIENTIFIQUE (C.N.R.S.), priority 2005, published 2012)

Legend:
Aβ1-42 = biological target: T1, Aβ1-42 (Homo sapiens, UniProt P05067); assay: Inhibition of the precipitation of Aβ1-42 by the addition of ligand (Micro BCA assay of soluble/aggregated peptide); type: biochemical; conditions: Aβ1-42 5 μM, pH 7.4; for CuCl2 % soluble Aβ: 20 μM CuCl2, 1 h 37° C. then 1 h with 200 μM ligand; for FeCl3 % soluble Aβ: 20 μM FeCl3, 1 h 37° C. then 1 h with 200 μM ligand; for ZnCl2 % soluble Aβ: 20 μM ZnCl2, 1 h 37° C. then 1 h with 200 μM ligand; for without metal % soluble Aβ: no metal salt, 1 h 37° C. then 1 h with 200 μM ligand
T1 construct: The β-amyloid peptide Aβ1-42 (Aβ1-42) was synthesised, purified (to a purity greater than 95%); made in house; host or cells: chemical peptide synthesis (no expression host)
T1 sequence (P05067 672-713): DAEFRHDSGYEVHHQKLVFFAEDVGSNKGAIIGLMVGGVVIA
Outline: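 Aβ1-42 (5 μM) pre-aggregated 1 h at 37 °C with stirring in 20 mM Tris-HCl/150 mM NaCl pH 7.4, with or without CuCl2, ZnCl2 or FeCl3 (20 μM). Ligand (200 μM, DMSO) added, 1 further hour at 37 °C; after centrifugation, peptide in supernatant and pellet quantified by Micro BCA against BSA standards.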

[1] = Number of ZnCl2 equivalents for the ligand to be entirely in the form of Zn(II) complex; type: binding; conditions: competition with the tris buffer and the DMSO
[2] = test system: TA98 and TA100 Salmonella strains; assay: AMES test, statements on both lines; conditions: adapted Ames test, TA98 and/or TA100, absence or presence of S9
Description: AMES test: The method is adapted from D. M. Maron and B. N. Ames, Mutat.
The test involves evaluating the potential of the tested molecules to induce mutation which is reverse to the histidine locus of these lines. These two lines were provided by Dr. Bruce N. Ames (University of California, Berkeley, USA). They are resistant to Ampicillin and sensitive to Tetracycline. They are not mutant toward rfa, UvγV and UvγA. The line TA98 (his D3052) contains a mutation of reading phase (GC) whereas the line TA100 (his G46) contains a substitution of base pair (GC).
The compounds to be tested were dissolved in 100% of DMSO (the solvent) and diluted logarithmically (by a factor of 10) so as to obtain 4 test concentrations of 30,000; 3,000; 300 and 30 μg/ml. Each series of 0.1 ml of stock solution to be tested, 0.1 ml of test line and of culture medium with or without 0.5 ml of enzymatic homogenate (S9) of rat liver microsome were mixed with 2 ml of molten agarose (containing 0.5 mM of histidine and 0.5 mM of biotin). This mixture was placed on the surface of a plate of minimal agarose glucose medium (30 ml for each Petri dish) so as to obtain final concentrations of compound to be tested of 3,000; 300; 30 and 3 μγ/plate. The plates were then incubated at 37° C. for 48 hours. […] The revertant colonies of the test lines were counted using a colony counter (Sigma). […]

| Structure (SMILES) | CuCl2 % soluble Aβ (Aβ1-42) [%] | FeCl3 % soluble Aβ (Aβ1-42) [%] | ZnCl2 % soluble Aβ (Aβ1-42) [%] | without metal % soluble Aβ (Aβ1-42) [%] | number of ZnCl2 equivalent for 15 μM of ligand to be entirely in the form of Zn(II) complex [1] [eq ZnCl2] | mutagenic or bactericidal effect [2] |
| --- | --- | --- | --- | --- | --- | --- |
| O=C(c1ccc2cccc(O)c2n1)c1ccc2cccc(O)c2n1 [Compound 6, Bis(8-hydroxy-2-quinoline)methanone] | 58 ± 3 | 51 | 54 | 56 |  |  |
| c1cnc2c(Nc3cccc4cccnc34)cccc2c1 [Compound 12, Bis(8-quinoline)amine] | 69 ± 2 | 59 | 52 | 69 | 100 |  |
| CC(C)(c1ccc2c(Cl)ccc(O)c2n1)c1ccc2c(Cl)ccc(O)c2n1 [Compound 4, 2,2′-(2,2-Propanediyl)-bis(5-chloro-8-hydroxyquinoline)] | 30 | 45 | 49 | 55 |  |  |
| Oc1cccc2ccc(C(F)(F)c3ccc4cccc(O)c4n3)nc12 [Compound 5, 2,2′-(Difluoromethanediyl)-bis(8-hydroxyquinoline)] | 51 ± 1 | 52 | 50 | 60 |  |  |
| CC(C)(c1ccc2cccc(O)c2n1)c1ccc2cccc(O)c2n1 [Compound 3, 2,2′-(2,2-propanediyl)-bis(8-hydroxyquinoline)] | 47 ± 3 | 60 | 59 | 56 |  | no mutagenic or bactericidal effect |
